# Data as given in PubChem BioAssay (NCI).
#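 Dose response: 5 concentrations. Exposure: 48 h. Format: 96-well plates. Endpoint: linear interpolation; highest concentration if not reached. The concentration for full growth arrest is given as TGI.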
# Assays:
# Test in all cases: inhibition of tumour cell growth, NCI panel, 48 h
# 786-0 renal = system: 786-0 renal
# A549 NSCLC = system: A549 NSCLC
# ACHN renal = system: ACHN renal
# BT-549 breast = system: BT-549 breast
# CAKI-1 renal = system: CAKI-1 renal
# CCRF-CEM leukemia = system: CCRF-CEM leukemia
# COLO 205 colon = system: COLO 205 colon
# DU-145 prostate = system: DU-145 prostate
# EKVX NSCLC = system: EKVX NSCLC
# HCT-116 colon = system: HCT-116 colon
# HCT-15 colon = system: HCT-15 colon
# HL-60(TB) leukemia = system: HL-60(TB) leukemia
# HOP-62 NSCLC = system: HOP-62 NSCLC
# HOP-92 NSCLC = system: HOP-92 NSCLC
# HS 578T breast = system: HS 578T breast
# HT29 colon = system: HT29 colon
# IGROV1 ovarian = system: IGROV1 ovarian
# K-562 leukemia = system: K-562 leukemia
# KM12 colon = system: KM12 colon
# LOX IMVI melanoma = system: LOX IMVI melanoma
# M14 melanoma = system: M14 melanoma
# MALME-3M melanoma = system: MALME-3M melanoma
# MCF7 breast = system: MCF7 breast
# MDA-MB-231 breast = system: MDA-MB-231 breast
# MDA-MB-435 = system: MDA-MB-435
# MDA-N = system: MDA-N
# MOLT-4 leukemia = system: MOLT-4 leukemia
# NCI-H226 lung = system: NCI-H226 lung
# NCI-H23 lung = system: NCI-H23 lung
# NCI-H460 lung = system: NCI-H460 lung
# NCI/ADR-RES ovarian = system: NCI/ADR-RES ovarian
# OVCAR-3 ovarian = system: OVCAR-3 ovarian
# OVCAR-4 ovarian = system: OVCAR-4 ovarian
# OVCAR-5 ovarian = system: OVCAR-5 ovarian
# OVCAR-8 ovarian = system: OVCAR-8 ovarian
# PC-3 prostate = system: PC-3 prostate
# RPMI-8226 leukemia = system: RPMI-8226 leukemia
# RXF 393 renal = system: RXF 393 renal
# SF-268 CNS = system: SF-268 CNS
# SF-295 CNS = system: SF-295 CNS
# SF-539 CNS = system: SF-539 CNS
# SK-MEL-2 melanoma = system: SK-MEL-2 melanoma
# SK-MEL-28 melanoma = system: SK-MEL-28 melanoma
# SK-MEL-5 melanoma = system: SK-MEL-5 melanoma
# SK-OV-3 ovarian = system: SK-OV-3 ovarian
# SN12C renal = system: SN12C renal
# SNB-19 CNS = system: SNB-19 CNS
# SNB-75 CNS = system: SNB-75 CNS
# SR leukemia = system: SR leukemia
# SW-620 colon = system: SW-620 colon
# T-47D breast = system: T-47D breast
# TK-10 renal = system: TK-10 renal
# U251 CNS = system: U251 CNS
# UACC-257 melanoma = system: UACC-257 melanoma
# UACC-62 melanoma = system: UACC-62 melanoma
# UO-31 renal = system: UO-31 renal
# A498 renal = system: A498 renal
# NCI-H522 lung = system: NCI-H522 lung
structure (smiles),measurement,setting,value
O=C(OCCN=c1c2ccccc2ccc2ccccc12)c1cc([N+](=O)[O-])cc([N+](=O)[O-])c1,TGI,786-0 renal,> 100 µM
same,TGI,A549 NSCLC,> 100 µM
same,TGI,ACHN renal,> 100 µM
same,TGI,BT-549 breast,> 100 µM
same,TGI,CAKI-1 renal,> 100 µM
same,TGI,CCRF-CEM leukemia,> 100 µM
same,TGI,COLO 205 colon,> 100 µM
same,TGI,DU-145 prostate,> 100 µM
same,TGI,EKVX NSCLC,> 100 µM
same,TGI,HCT-116 colon,> 100 µM
same,TGI,HCT-15 colon,> 100 µM
same,TGI,HL-60(TB) leukemia,> 100 µM
same,TGI,HOP-62 NSCLC,> 100 µM
same,TGI,HOP-92 NSCLC,> 100 µM
same,TGI,HS 578T breast,> 100 µM
same,TGI,HT29 colon,> 100 µM
same,TGI,IGROV1 ovarian,> 100 µM
same,TGI,K-562 leukemia,> 100 µM
same,TGI,KM12 colon,> 100 µM
same,TGI,LOX IMVI melanoma,> 100 µM
same,TGI,M14 melanoma,> 100 µM
same,TGI,MALME-3M melanoma,66.2 µM
same,TGI,MCF7 breast,> 100 µM
same,TGI,MDA-MB-231 breast,> 100 µM
same,TGI,MDA-MB-435,> 100 µM
same,TGI,MDA-N,> 100 µM
same,TGI,MOLT-4 leukemia,> 100 µM
same,TGI,NCI-H226 lung,> 100 µM
same,TGI,NCI-H23 lung,> 100 µM
same,TGI,NCI-H460 lung,> 100 µM
same,TGI,NCI/ADR-RES ovarian,> 100 µM
same,TGI,OVCAR-3 ovarian,> 100 µM
same,TGI,OVCAR-4 ovarian,> 100 µM
same,TGI,OVCAR-5 ovarian,> 100 µM
same,TGI,OVCAR-8 ovarian,> 100 µM
same,TGI,PC-3 prostate,> 100 µM
same,TGI,RPMI-8226 leukemia,> 100 µM
same,TGI,RXF 393 renal,> 100 µM
same,TGI,SF-268 CNS,> 100 µM
same,TGI,SF-295 CNS,> 100 µM
same,TGI,SF-539 CNS,> 100 µM
same,TGI,SK-MEL-2 melanoma,> 100 µM
same,TGI,SK-MEL-28 melanoma,> 100 µM
same,TGI,SK-MEL-5 melanoma,> 100 µM
same,TGI,SK-OV-3 ovarian,> 100 µM
same,TGI,SN12C renal,> 100 µM
same,TGI,SNB-19 CNS,> 100 µM
same,TGI,SNB-75 CNS,> 100 µM
same,TGI,SR leukemia,> 100 µM
same,TGI,SW-620 colon,> 100 µM
same,TGI,T-47D breast,> 100 µM
same,TGI,TK-10 renal,> 100 µM
same,TGI,U251 CNS,> 100 µM
same,TGI,UACC-257 melanoma,> 100 µM
same,TGI,UACC-62 melanoma,> 100 µM
same,TGI,UO-31 renal,> 100 µM
Cn1c2c(c3c(=O)[nH]ncc31)Cc1ccccc1-2,TGI,786-0 renal,51 µM
same,TGI,A498 renal,27.5 µM
same,TGI,A549 NSCLC,> 100 µM
same,TGI,ACHN renal,34.7 µM
same,TGI,BT-549 breast,60.5 µM
same,TGI,CAKI-1 renal,> 100 µM
same,TGI,CCRF-CEM leukemia,> 100 µM
same,TGI,COLO 205 colon,54.3 µM
same,TGI,DU-145 prostate,50.7 µM
same,TGI,EKVX NSCLC,> 100 µM
same,TGI,HCT-116 colon,60.8 µM
same,TGI,HCT-15 colon,> 100 µM
same,TGI,HL-60(TB) leukemia,69 µM
same,TGI,HOP-62 NSCLC,> 100 µM
same,TGI,HOP-92 NSCLC,69.4 µM
same,TGI,HS 578T breast,> 100 µM
same,TGI,HT29 colon,> 100 µM
same,TGI,IGROV1 ovarian,33.7 µM
same,TGI,K-562 leukemia,> 100 µM
same,TGI,KM12 colon,66.8 µM
same,TGI,LOX IMVI melanoma,75.1 µM
same,TGI,M14 melanoma,38.9 µM
same,TGI,MALME-3M melanoma,44.5 µM
same,TGI,MCF7 breast,56.5 µM
same,TGI,MDA-MB-231 breast,98.2 µM
same,TGI,MDA-MB-435,35.1 µM
same,TGI,MDA-N,34.8 µM
same,TGI,MOLT-4 leukemia,> 100 µM
same,TGI,NCI-H226 lung,61.9 µM
same,TGI,NCI-H23 lung,> 100 µM
same,TGI,NCI-H460 lung,15.1 µM
same,TGI,NCI-H522 lung,> 100 µM
same,TGI,NCI/ADR-RES ovarian,> 100 µM
same,TGI,OVCAR-3 ovarian,41.2 µM
same,TGI,OVCAR-4 ovarian,> 100 µM
same,TGI,OVCAR-5 ovarian,> 100 µM
same,TGI,OVCAR-8 ovarian,62.8 µM
same,TGI,PC-3 prostate,> 100 µM
same,TGI,RPMI-8226 leukemia,69 µM
same,TGI,RXF 393 renal,32.4 µM
same,TGI,SF-268 CNS,94.2 µM
same,TGI,SF-295 CNS,25.7 µM
same,TGI,SF-539 CNS,78.7 µM
same,TGI,SK-MEL-2 melanoma,41.8 µM
same,TGI,SK-MEL-28 melanoma,60.1 µM
same,TGI,SK-MEL-5 melanoma,34.9 µM
same,TGI,SK-OV-3 ovarian,> 100 µM
same,TGI,SN12C renal,47.9 µM
same,TGI,SNB-19 CNS,> 100 µM
same,TGI,SNB-75 CNS,34.9 µM
same,TGI,SR leukemia,28.4 µM
same,TGI,SW-620 colon,91.2 µM
same,TGI,T-47D breast,78.2 µM
same,TGI,TK-10 renal,29.3 µM
same,TGI,U251 CNS,85.8 µM
same,TGI,UACC-257 melanoma,27.1 µM
same,TGI,UO-31 renal,45.1 µM
